The record followed here is US20110230421A1, “FUSION PROTEINS OF APOPTIN-PROTEIN TR[…] OF CARBOXYL-TERMINUS OF EC-SOD” (priority 2008, published 2011).

The test system of experiment [1] is Lewis lung carcinoma. In kind it is in vivo, mouse. Conditions: i.p. daily for 7-8 days, cyclophosphamide 20, Poly Arg-Apoptin 40, Apoptin-EC-SOD-PTD 10 mg/kgBW/day; for ratio of tumor inhibition: versus blank group mean tumor weight. The method, then:
Four groups including a blank control, a positive control and a recombinant Apoptin-EC-SOD-PTD test group and a recombinant Poly Arg-Apoptin group were set for the experiment, and 8 animals were tested for each group. After inoculation of Lewis lung carcinoma cells, the blank control group was injected with saline water. Whereas, the positive control group was injected with cyclophosphamide solution (20 mg/kgBW/day). The two test groups were injected with the recombinant Apoptin-EC-SOD-PTD (10 mg/kgBW/day) which was purified, dialysed and sterile filtrated and recombinant Poly Arg-Apoptin (40 mg/kgBW/day), respectively.
1. Inoculation of carcinoma cell line: Six weeks old C57BU6 male mice with a weight of about 20 g were inoculated by armpit with 0.2 ml of Lewis lung carcinoma single cell suspension. After feeding for 3-4 days, tumor growth in the armpits of the mice was observed. Drug administration test would be initiated when the tumor grew to a size of several millimeters.
2. Administration: Drugs were administered by intraperitoneal injection, and the administrations were continued for 7-8 days. The mouse was weighed before daily administration.
3. Detecting ratio of tumor inhibition: After the drug administrations were stop for 2 days, the mice were sacrificed by breaking their necks. The tumor tissue was stripped from the body, weighted and calculated the ratio of tumor inhibition.
Ratio of tumor inhibition=(mean tumor weight of the blank group—mean tumor weight of the test group)/mean tumor weight of the blank group×100%.

Experiment [2] deals with HeLa cells. Nature of the experiment: MTT survival of HeLa cells cultured in vitro, 24 h. In kind it is cell-based. The settings on record: 100 μg/ml. As for the experimental part:
1. The HeLa cells were cultured on the 96-well cell culture plate at 37° C. until the cell density reached to about 60%. Imidazole was removed from the recombinant Apoptin-EC-SOD-PTD sample isolated and purified after expressing by repeated dialysis. After sterile filtration, the protein was diluted by adding different volume of DMEM cell culture media. From the highest concentration of protein, the concentration was reduced by half dilution gradually until zero. And the solution without protein was used as the negative control; for each protein concentration group were selected 3-4 wells for parallel control. Meanwhile, the recombinant Apoptin protein isolated and purified from the prokaryotic expression system using the similar method was used as the control and conducted the same experimental operation. The two sets of samples were cultured for 24 h, drew culture media out and added the DMEM (100 μl) containing the 5 μg/ml of MTT, and then incubated for 4 hours at 37° C., drew the culture media out and added DMSO (100 μl) to dissolve the purple crystals, incubated for 10 min at 37° C. and measured its absorbance at 490 nm by a microplate reader. […]
2. Survival ratios of HeLa cells treated with different sample concentration were detected by MTT method.

Where two headings read alike, the source gives them in different places.

With `O=P1(N(CCCl)CCCl)NCCCO1` (stereo not shown) [cyclophosphamide], the “weight of the tumor tissue X ± SD” value in experiment [1] (tumor stripped 2 days after last dose) came to 1.21 ± 0.119. In addition, the “ratio of tumor inhibition” value in experiment [1] and in experiment [1] (listed as positive control) was 47.4% in each case.

B1: recombinant Apoptin: recombinant Apoptin protein isolated and purified from the prokaryotic expression system, used as the control (protein)
chain: MNALQEDTPPGPSTVFRPPTSSRPLETPHCREIRIGIAGITITLSLCGCANARAPTLRSATADNSESTGFKNVPDLRTDQPKPPSKKRSCDPSEYRVSELKESLITTTPSRPRTAKRRIRL
modifications: Chicken anemia virus
notes: recombinant Apoptin protein isolated and purified from the prokaryotic expression system, used as the control
B1: the “effect on the cell growth of HeLa” value in experiment [2] was “not obvious”.
